Usually half-life stands for the time in which the quantity being followed falls by half. High values mean slow loss, low ones fast loss. By inhibition is commonly meant the drop in the measured response relative to a control, in per cent.

Like-named read-outs stand apart in the source and are kept apart here.

This is an account of results in patent publication US10815197B2, “N-sulfonyl benzamides as voltage-gated sodium channel inhibitors” (SHANGHAI HAIYAN PHARMACEUTICAL TECHNOLOGY CO., LTD., priority 2016, dated 2020).

Data set [1] in a line: Metabolism stability assay, human liver microsomes. It counts as in vitro ADME. The following applies: for half-life at 1 µM: pH 7.4. On the procedure: Assay 4: Metabolism Stability Assay 1. […] Buffer A: 1 L solution of 100 mM potassium dihydrogen phosphate containing 1 mM EDTA (Sigma, V900157-100G) was prepared. Buffer B: 1 L solution of 100 mM dipotassium hydrogen phosphate containing 1 mM EDTA was prepared. Buffer C: 700 mL of buffer B was taken out and titrated with buffer A to pH 7.4. 2. […] 2.2 20 μl (20 mg/mL) of liver microsomes (Corning Lot. NO. 4133007) stock solution was added to 513.4 μl of buffer C on wet ice. 0.75 mg/mL liver microsomal solution was obtained. 2.3 1.5 μl of each of the above-mentioned compound to be tested and ketanserin solution was added to 498.5 μl of liver microsomal solution (0.7 5 mg/mL) respectively on wet ice. 1.5 μM mixed solution of compound to be tested and 1.5 μM mixed solution of ketanserin were obtained. 2.4 At the time points 0, 5, 15, 30, 45, and 60 min, 30 μl of the mixed solution of compound to be tested and 30 μl of the mixed solution of ketanserin were dispensed into the reaction plate on wet ice, respectively. 2.5 5 mg reduced coenzyme II (Roche, 10621706001) was weighed and dissolved in 1 mL of buffer C. 6 mM reduced coenzyme II solution was obtained. The reduced coenzyme II solution was dispensed into the reaction plate. 2.6 Imipramine was dissolved to give a 10 mM solution. 10 μl of imipramine solution was added to 100 mL of blank acetonitrile to generate the internal reference. 2.7 At 0 min, 135 μL of iced acetonitrile (Merck (Lot. 1778229518)) containing the internal reference was added to each well and then 15 μL of buffer C was added. 2.8 The reaction plate was placed into a 37° C. water bath incubator for 5 min. In the reaction plate, 15 μL of reduced coenzyme II solution was added to each well to initiate the reaction, and the timing was started. At the time points of 5, 15, 30, 45, and 60 min, 135 μL of iced acetonitrile containing the internal reference was added to each well to terminate the reaction. 2.9 The reaction plate was sealed with an aluminum film, placed on a vibration mixer and shaken at 500 rpm for 5 min. The plate was then centrifuged in a centrifuge at 3750 rp for 15 min. 2.10 The sample was diluted with pure water in accordance with the ratio of 1:1 and detected by LC/MS. Half-life: 0.693/K (the slope by plotting based on the incubation time and logarithm of the concentration value) Clearance ratio: (0.693/half-life)*(1/protein concentration (0.5 mg/mL))*(proportional factor) Wherein, the K value and the proportional factor were calculated by those skilled in the art according to the methods described in the prior art and contained in the instructions of the liver microsome product.
In general terms: Liver microsomes are vesicles of endoplasmic reticulum, rich in cytochrome P450 enzymes.

The target of the next data set is T1, hNav1.7 (Homo sapiens, UniProt Q15858).
T1 construct: host or cells: CHO
Description: Manual patch clamp experiment hNav1.7 (CHO-hNav1.7 stable cell line). It counts as cell-based. To be noted: for inhibition at 0.1 µM: read-out: Inhibition of Nav1.7 100 nM(%); for inhibition at 1 µM: read-out: Inhibition of Nav1.7 1000 nM(%). From the text: Assay 1: Manual Patch Clamp Experiment of Sodium Ion (hNav1.7, hNav1.5 and hNaV1.8) and Calcium Ion (hCav3.2) Channels
hNav1.7, hNav1.5 Manual Patch Clamp Experiment:
Patch voltage clamp electrophysiology allows for the direct measurement and quantification of current block of voltage-gated sodium channels (NaV's), and allows the determination of the time and voltage-dependence of block which has been interpreted as differential binding to the resting, open and inactivated states of the sodium channel to reflect the compound's inhibitory or activating effects (Hille, B., Journal of General Physiology (1977), 69: 497-515).
Representative compounds of the present invention were subject to a manual patch clamp experiment and the purpose of this study was to test the effect of compounds on this ion channel current on a stable cell line transfected with a specific ion channel using a manual patch clamp method. The used stable cell lines CHO-hNav1.7 and HEK-hNav1.5 were from Genionics and WuXi Apptec (Shanghai) respectively.
Manual patch clamp experimental program is as follows:
(1) Preparation of solutions and compounds: The whole cell patch clamp technique was used to record hNav1.7 and hNav1.5 currents. In the experiment, the composition of extracellular fluid (mM): HEPES: 5, NaCl: 40, KCl: CaCl2: 1, MgCl2: 1, CdCl2: 0.1, TEA-Cl: 20. The pH was adjusted to 7.3 with NaOH and the osmotic pressure was adjusted to 310-320 mOsm with sucrose, filtered and stored at 4° C. The composition of the intracellular fluid (mM): HEPES: 10, NaCl: 10, CsOH: 5, CsF: 140, EGTA: 1. The pH was adjusted to 7.3 with CsOH and the osmotic pressure was adjusted to 280-290 mOsm with sucrose, filtered and stored at −20° C.
The positive control and the test compound were firstly dissolved in 100% DMSO (Sigma-Aldrich, D2650), configured as stock solution at a concentration (100 nM, 1000 nM).) The above stock solution was serially diluted with DMSO prior to the experiment, the solution was further diluted with extracellular solution to obtain the test solution of the desired concentration.
(2) Manual Patch Clamp Experiment: The cell suspension was added to a 35 mm petri dish and placed on an inverted microscope stage. The cells were perfused with an extracellular fluid and the flow rate was 1-2 mL/min after cell adherence. The glass microelectrode was prepared in two steps by a microelectrode puller with an inlet water resistance of 2-5 MΩ. A/D-D/A digital-analog conversion was performed by Digidata 1440 (Molecular Devices) and pCLAMP software (version 10.2, Molecular Devices) for stimulation and signal acquisition; the signal was amplified by patch clamp amplifier (Multiclamp 700B, Molecular Devices), and filtering is 4 KHz.
Two different voltage stimulation procedures were used in the hNav1.7 and hNav1.5 manual patch clamp experiments.
One is the inactivation stimulation program, the clamp potential is set at V1/2 of the corresponding channel, i.e., about 50% of the channels are inactivated, then the voltage is applied to −120 mV for 50 ms, then depolarized to −10 mV for 20 ms leading to sodium current, and finally returned to the clamp potential. This stimulation program can also be called channel state-dependent voltage stimulation program.
The other is the non-inactivation stimulation program, the clamp potential is maintained at −120 mV, voltage stimulation is given to −10 mV for 20 ms leading to sodium current, and finally returned to the clamp potential. That is, all channels have not experienced inactivation status, but activate directly from the resting state under the conditions of the stimulation program.
The time intervals of these two voltage stimulation programs were 10 s. The inhibitory effect of the compound was calculated by the change of the current before and after dosing, the IC50 value was fitted by the Hill equation.
Background: The patch-clamp technique gives a direct electrical read-out from membranes.

For data set [2], the system named is SNL-induced cold allodynia in rats. Description: Cold allodynia in SNL (spinal nerve ligation) rats. It is filed as in vivo, rat. From the text: Assay 3: Cold Allodynia in SNL
The experimental animals were male Sprague-Dawley rats, weighing 140-150 g at the beginning of the experiment. The animals were purchased from Slack company, and food and water were supplied ad lib after purchase. Rats were group-housed, four rats/cage, and individually identified by marking on the tail.
Test Compound and Grouping:
Vehicle: 5% dimethylacetamide(Sinopharm Technology), 5% solutol (Sigma) and 90% saline
Positive control: Pregabalin;
Test compound: compound Z-164;
The positive control and solvent composition of the test compound are 5% dimethylacetamide, 5% solutol and 90% saline.
30 mg/kg Compound Z-164:1.23 mL of dimethylacetamide was added to 148.11 mg of compound Z-164, stirred well until fully dissolved, and then 1.23 mL solutol was added and mixed well. Final volume was made up with 90% saline to 21.44 mL and mixed well before oral administration.
30 mg/kg Pregabalin: 1.08 mL of dimethylacetamide was added to 129.48 mg of Pregabalin, stirred well until fully dissolved, and then 1.08 mL solutol was added and mixed well. Final volume was made up with 90% saline to 21.58 mL and mixed well before oral administration.
1.1. Spinal Nerve Ligation (SNL) model • Surgical procedures are performed aseptically. • The surgical instruments (scissors, tweezers, scalpels, surgical cotton, sutures, retractor) are sterilized prior to surgery. • Animals were anesthetized with pentobarbital (50 mg/kg, i.p.). A toe pinch was used to ensure that the animals were fully anesthetized prior to surgery. Put ophthalmic ointment in the animal's eyes to prevent the corneas from drying out. • The fur on the surgical area of animal's lower body was shaved, and the skin of the surgical area was swabbed with 3 rounds of Betadine and 70% ethanol. The skin was allowed to dry before surgery. • A longitudinal incision will be made by scalpel at the lower lumbar and sacral levels, exposing the paraspinal muscles on the left side. The retractor was used to separate the muscles and tissues to expose the vertebra. • The left L5 and L6 spinal nerves will be isolated and tightly ligated with 6-0 silk thread. • The wound was closed with sutures. • The surgical instruments were cleaned, and sterilized by using a glass bead sterilizer. • Animals were placed on the electric blanket after surgery. Inject 5 ml sterile saline to prevent dehydration. The animals were returned to their home cage after fully awake (walking around).
1.2. Baseline Test of Cold Allodynic and Grouping
The baseline of cold allodynic was measured in rats two days before dosing. Use a pipette to apply 100 μl of acetone to the animal's lateral hind paw skin and the time of slapping, flinching, lifting, licking of the affected paw were recorded for one minute. Acetone was applied twice in total and the two applications were 10 minutes apart. The sum of the two times was recorded as cold allodynic time in rats. The rats were grouped randomized according to the results of baseline test of cold allodynic the day before dosing.
1.3. Cold Allodynic Testing
A pipette was used to apply 100 μl of acetone to the animal's lateral hind paw skin two hours after dosing and the time of slapping, flinching, lifting, licking of the affected paw were recorded for one minute. Acetone was applied twice and the two applications were 10 minutes apart. The sum of the two times was recorded as cold allodynic time in rats.
Oral administration was performed two hours before cold allodynic testing.
1.5. Data Collection and Analysis
Data were collected with Excel and analyzed with Prism.

Where [3] appears, read: 30 mg/kg p.o., two hours after dosing.

T1 sequence (Q15858 whole entry): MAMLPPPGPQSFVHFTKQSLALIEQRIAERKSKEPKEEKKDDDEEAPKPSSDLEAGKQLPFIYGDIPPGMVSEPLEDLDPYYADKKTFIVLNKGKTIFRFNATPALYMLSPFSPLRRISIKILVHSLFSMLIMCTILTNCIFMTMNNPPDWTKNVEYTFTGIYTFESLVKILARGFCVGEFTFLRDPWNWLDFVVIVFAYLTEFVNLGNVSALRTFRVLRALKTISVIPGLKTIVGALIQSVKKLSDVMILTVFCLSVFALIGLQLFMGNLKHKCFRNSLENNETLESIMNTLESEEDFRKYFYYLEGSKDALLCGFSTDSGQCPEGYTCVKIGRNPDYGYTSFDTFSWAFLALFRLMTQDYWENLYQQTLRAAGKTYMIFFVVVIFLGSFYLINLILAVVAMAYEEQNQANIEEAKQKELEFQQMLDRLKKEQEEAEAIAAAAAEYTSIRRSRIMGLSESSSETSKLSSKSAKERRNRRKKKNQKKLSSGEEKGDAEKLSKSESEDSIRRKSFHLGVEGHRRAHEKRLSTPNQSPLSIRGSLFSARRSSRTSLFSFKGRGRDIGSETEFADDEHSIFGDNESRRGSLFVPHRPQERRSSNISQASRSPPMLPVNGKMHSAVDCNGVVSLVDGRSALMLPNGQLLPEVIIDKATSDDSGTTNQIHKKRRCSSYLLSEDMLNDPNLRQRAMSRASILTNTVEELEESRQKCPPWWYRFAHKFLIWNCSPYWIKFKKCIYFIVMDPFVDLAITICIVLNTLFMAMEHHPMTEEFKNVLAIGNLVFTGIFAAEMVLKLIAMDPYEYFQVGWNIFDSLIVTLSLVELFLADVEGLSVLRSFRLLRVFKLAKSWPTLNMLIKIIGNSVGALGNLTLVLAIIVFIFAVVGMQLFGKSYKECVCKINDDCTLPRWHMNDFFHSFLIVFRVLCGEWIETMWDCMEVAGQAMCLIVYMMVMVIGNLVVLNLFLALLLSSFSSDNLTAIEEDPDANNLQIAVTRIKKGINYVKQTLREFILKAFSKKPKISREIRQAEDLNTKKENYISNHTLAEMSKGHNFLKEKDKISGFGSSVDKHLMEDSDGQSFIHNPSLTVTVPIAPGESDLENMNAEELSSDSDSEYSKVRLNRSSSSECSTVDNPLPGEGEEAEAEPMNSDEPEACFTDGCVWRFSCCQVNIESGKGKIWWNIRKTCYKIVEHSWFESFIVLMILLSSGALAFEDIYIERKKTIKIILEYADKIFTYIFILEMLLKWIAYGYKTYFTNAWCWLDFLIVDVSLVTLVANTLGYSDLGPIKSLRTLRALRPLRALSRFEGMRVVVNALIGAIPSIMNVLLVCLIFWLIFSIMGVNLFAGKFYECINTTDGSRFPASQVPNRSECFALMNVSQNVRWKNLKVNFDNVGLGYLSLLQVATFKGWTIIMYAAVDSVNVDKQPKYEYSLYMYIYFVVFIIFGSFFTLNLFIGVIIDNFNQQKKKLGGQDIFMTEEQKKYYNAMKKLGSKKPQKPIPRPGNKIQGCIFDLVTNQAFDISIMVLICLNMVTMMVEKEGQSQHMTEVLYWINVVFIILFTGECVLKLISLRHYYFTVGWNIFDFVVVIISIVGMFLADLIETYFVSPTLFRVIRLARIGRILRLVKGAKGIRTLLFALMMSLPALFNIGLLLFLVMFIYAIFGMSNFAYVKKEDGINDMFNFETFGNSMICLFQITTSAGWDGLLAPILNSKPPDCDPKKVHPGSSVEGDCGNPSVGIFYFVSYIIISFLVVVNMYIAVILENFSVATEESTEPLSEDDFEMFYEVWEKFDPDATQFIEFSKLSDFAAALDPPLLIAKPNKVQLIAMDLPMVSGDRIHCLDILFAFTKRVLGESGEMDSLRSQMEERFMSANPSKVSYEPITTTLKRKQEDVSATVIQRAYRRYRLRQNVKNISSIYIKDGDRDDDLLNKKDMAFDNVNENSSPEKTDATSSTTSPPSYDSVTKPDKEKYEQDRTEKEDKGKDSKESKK

Take `O=C(NS(=O)(=O)C1CC1)c1cc(Cl)c(OC[C@H]2CCCN2c2ccc(C(F)(F)F)cc2)cc1F` [Compound Z-80, (R)-5-chloro-N-(cyclopropylsulfonyl)-2-fluoro-4-((1-(4-(trifluoromethyl)phenyl)pyrrolidine-2-yl)methoxy)benzamide]: in data set [1], the “Clearance” value is 2.182 L/h/kg and the half-life at 1 µM stood at 0.796 h. Besides, the inhibition at 0.1 µM on hNav1.7 (compound at 100 nM) was found to be 90.5%. The inhibition at 1 µM on hNav1.7 (compound at 1000 nM) was determined as 96.8%.
Take `O=C(NS(=O)(=O)C1CC1)c1cc(Cl)c(CN2CCN(c3ccc(Cl)c(Cl)c3)CC2)cc1F` [Compound Z-89, 5-chloro-N-(cyclopropylsulfonyl)-4-((4-(3,4-dichlorophenyl)piperazin-1-yl)methyl)-2-fluorobenzamide]: in data set [1], the “Clearance” value is 0.389 L/h/kg and the half-life at 1 µM was determined as 4.46 h. Further, on hNav1.7, the inhibition at 0.1 µM was found to be 94.8% and the inhibition at 1 µM was 99.7%.
Regarding `O=C(NS(=O)(=O)C1CC1)c1cc(Cl)c(CN2CCN(c3ccc(OC(F)(F)F)c(Cl)c3)CC2)cc1F` [Compound Z-92], in data set [1], the “Clearance” value worked out at 0.0042 L/h/kg and the half-life at 1 µM was 420 h. The inhibition at 0.1 µM on hNav1.7 (compound at 100 nM) was determined as 94.5%. The inhibition at 1 µM on hNav1.7 (compound at 1000 nM) was 97.3%.
The corresponding values for `O=C(NS(=O)(=O)C1CC1)c1cc(Cl)c(OC2CCN(c3ccc(Cl)c(Cl)c3)CC2)cc1F` [Compound Z-117, 5-chloro-N-(cyclopropylsulfonyl)-4-((1-(3,4-dichlorophenyl)piperidin-4-yl)oxy)-2-fluorobenzamide] are 0.325 L/h/kg, 5.36 h, 89.3% and 96.1%.
The corresponding values for `O=C(NS(=O)(=O)C1CC1)c1cc(Cl)c(CN2CCN(c3ccc(OC(F)(F)F)cn3)CC2)cc1F` [Compound Z-159] are 0.221 L/h/kg, 7.84 h, 90.6% and 97.3%.
The corresponding values for `Cc1cc(C(=O)NS(=O)(=O)C2CC2)c(F)cc1OC[C@H]1CCCN1c1ccc(C(F)(F)F)cn1` [Compound Z-195] are 1.252 L/h/kg, 1.39 h, 76.7% and 92.7%.
For the compound `CC(C)C[C@H](CN)CC(=O)O` [Positive control, Pregabalin, reference compound], in data set [2] (setting [3]), the “Anti-allodynia Effect (mean, %)” value is reported as 74.9% and the “Response duration (mean, s) the next day (Baseline)” value is given as 13.005 s. In addition, in data set [2] (30 mg/kg, 2 hr post oral administration), the “inhibition of SNL-induced cold allodynia (in words)” value is on record as “inhibition of SNL-induced cold allodynia”. In data set [2] (acetone cold allodynia, baseline before dosing), the “Response duration (mean, s) the first day (Baseline)” value amounted to 36.847 s.
